Laboratory results: ChEMBL document CHEMBL4138151, “Discovery of a head-to-tail cyclic peptide as the Keap1-Nrf2 protein-protein interaction inhibitor with high cell potency” (Eur J Med Chem, 2018)
Active and inactive are the calls of the source. The rule behind the calls is not given here.

Experiments:
[1] = molecular target: T1, Kelch-like ECH-associated protein 1/Nuclear factor erythroid 2-related factor 2 (Mus musculus) (UniProt Q60795+Q9Z2X8); assay: Inhibition of Keap1/Nrf2 protein-protein interaction in mouse RAW264.7 cells assessed as upregulation of HO-1 mRNA expression at 0.1 to 10 uM after 10 hrs by quantitative real-time-PCR analysis; type: cell-based
[2] = molecular target: T1, Kelch-like ECH-associated protein 1/Nuclear factor erythroid 2-related factor 2 (Mus musculus); assay: Inhibition of Keap1/Nrf2 protein-protein interaction in mouse RAW264.7 cells assessed as increase in HO-1 levels up to 10 uM after 8 hrs by Western blot analysis; type: cell-based
[3] = molecular target: T1, Kelch-like ECH-associated protein 1/Nuclear factor erythroid 2-related factor 2 (Mus musculus); assay: Inhibition of Keap1/Nrf2 protein-protein interaction in mouse RAW264.7 cells assessed as increase in GCLM levels up to 10 uM after 8 hrs by Western blot analysis; type: cell-based
[4] = molecular target: T1, Kelch-like ECH-associated protein 1/Nuclear factor erythroid 2-related factor 2 (Mus musculus); assay: Inhibition of Keap1/Nrf2 protein-protein interaction in mouse RAW264.7 cells assessed as upregulation of GCLM mRNA expression at 0.1 to 10 uM after 10 hrs by quantitative real-time-PCR analysis; type: cell-based
[5] = molecular target: T1, Kelch-like ECH-associated protein 1/Nuclear factor erythroid 2-related factor 2 (Mus musculus); assay: Inhibition of Keap1/Nrf2 protein-protein interaction in mouse RAW264.7 cells assessed as increase in NQO1 levels up to 10 uM after 8 hrs by Western blot analysis; type: cell-based
[6] = molecular target: T1, Kelch-like ECH-associated protein 1/Nuclear factor erythroid 2-related factor 2 (Mus musculus); assay: Inhibition of Keap1/Nrf2 protein-protein interaction in mouse RAW264.7 cells assessed as upregulation of NQO1 mRNA expression at 0.1 to 10 uM after 10 hrs by quantitative real-time-PCR analysis; type: cell-based
RAW264.7 [7] = assay: Anti-inflammatory activity in mouse RAW264.7 cells assessed as restoration of LPS-induced decrease in SOD activity at 10 uM; type: functional, cell-based
RAW264.7 [8] = assay: Anti-inflammatory activity in mouse RAW264.7 cells assessed as inhibition of LPS-induced TNFalpha production up to 10 uM pretreated for 10 hrs followed by LPS stimulation for 12 hrs by ELISA; type: functional, cell-based
RAW264.7 [9] = assay: Anti-inflammatory activity in mouse RAW264.7 cells assessed inhibition of LPS-induced increase in MPO activity at 10 uM; type: functional, cell-based
[10] = molecular target: T1, Kelch-like ECH-associated protein 1/Nuclear factor erythroid 2-related factor 2 (Mus musculus); assay: Inhibition of Keap1/Nrf2 protein-protein interaction in mouse RAW264.7 cells assessed as upregulation of NQO1 mRNA expression at 1 uM after 10 hrs by quantitative real-time-PCR analysis; type: cell-based
RAW264.7 [11] = assay: Anti-inflammatory activity in mouse RAW264.7 cells assessed restoration of LPS-induced decrease in GSH-Px activity at 10 uM; type: functional, cell-based
RAW264.7 [12] = assay: Upregulation of SOD protein expression in mouse RAW264.7 cells at 1 uM after 8 hrs by Western blot analysis; type: functional, cell-based
RAW264.7 [13] = assay: Upregulation of GSH-Px protein expression in mouse RAW264.7 cells at 1 uM after 8 hrs by Western blot analysis; type: functional, cell-based
[14] = molecular target: T1, Kelch-like ECH-associated protein 1/Nuclear factor erythroid 2-related factor 2 (Mus musculus); assay: Inhibition of Keap1/Nrf2 protein-protein interaction in mouse RAW264.7 cells assessed as upregulation of GCLM mRNA expression at 1 uM after 10 hrs by quantitative real-time-PCR analysis; type: cell-based
RAW264.7 [15] = settings: Mus musculus, up to 10 µM
Description: Anti-inflammatory activity in mouse RAW264.7 cells assessed as inhibition of LPS-induced IL-18 production up to 10 uM pretreated for 10 hrs followed by LPS stimulation for 12 hrs by ELISA

RAW264.7 [16] = assay: Inhibition of LPS-induced increase in ROS levels in mouse RAW264.7 cells up to 10 uM preincubated for 10 hrs followed by LPS stimulation for 12 hrs by cH2DCF-DA dye-based fluorescent microscopy; type: functional, cell-based
RAW264.7 [17] = assay: Anti-inflammatory activity in mouse RAW264.7 cells assessed as inhibition of LPS-induced IL-1beta production up to 10 uM pretreated for 10 hrs followed by LPS stimulation for 12 hrs by ELISA; type: functional, cell-based
RAW264.7 [18] = assay: Anti-inflammatory activity in mouse RAW264.7 cells assessed as reduction in LPS-induced NO production by measuring NO level at 10 uM preincubated for 10 hrs followed by LPS stimulation for 12 hrs by Griess assay (reference value: 50 uM); type: functional
[19] = molecular target: T1, Kelch-like ECH-associated protein 1/Nuclear factor erythroid 2-related factor 2 (Mus musculus); assay: Inhibition of Keap1/Nrf2 protein-protein interaction in mouse RAW264.7 cells assessed as upregulation of HO1 mRNA expression at 1 uM after 10 hrs by quantitative real-time-PCR analysis; type: cell-based

T1 sequence (Q60795 whole entry, looked up): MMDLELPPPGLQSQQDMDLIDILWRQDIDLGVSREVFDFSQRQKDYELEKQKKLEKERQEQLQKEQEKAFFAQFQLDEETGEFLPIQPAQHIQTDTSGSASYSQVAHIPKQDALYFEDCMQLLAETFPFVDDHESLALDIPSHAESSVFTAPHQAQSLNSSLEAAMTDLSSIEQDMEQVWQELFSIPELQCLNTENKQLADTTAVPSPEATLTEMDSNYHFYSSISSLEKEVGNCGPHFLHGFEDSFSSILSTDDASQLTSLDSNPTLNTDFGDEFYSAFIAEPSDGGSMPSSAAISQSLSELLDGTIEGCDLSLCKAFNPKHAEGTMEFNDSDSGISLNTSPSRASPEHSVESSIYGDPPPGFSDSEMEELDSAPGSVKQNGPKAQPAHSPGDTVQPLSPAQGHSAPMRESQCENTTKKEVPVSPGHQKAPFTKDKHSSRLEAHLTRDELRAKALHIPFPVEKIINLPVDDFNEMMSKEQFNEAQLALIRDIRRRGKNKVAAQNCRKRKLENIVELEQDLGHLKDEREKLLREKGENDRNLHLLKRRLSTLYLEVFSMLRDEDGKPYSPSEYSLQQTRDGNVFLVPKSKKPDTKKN
T1 sequence (Q9Z2X8 whole entry, looked up): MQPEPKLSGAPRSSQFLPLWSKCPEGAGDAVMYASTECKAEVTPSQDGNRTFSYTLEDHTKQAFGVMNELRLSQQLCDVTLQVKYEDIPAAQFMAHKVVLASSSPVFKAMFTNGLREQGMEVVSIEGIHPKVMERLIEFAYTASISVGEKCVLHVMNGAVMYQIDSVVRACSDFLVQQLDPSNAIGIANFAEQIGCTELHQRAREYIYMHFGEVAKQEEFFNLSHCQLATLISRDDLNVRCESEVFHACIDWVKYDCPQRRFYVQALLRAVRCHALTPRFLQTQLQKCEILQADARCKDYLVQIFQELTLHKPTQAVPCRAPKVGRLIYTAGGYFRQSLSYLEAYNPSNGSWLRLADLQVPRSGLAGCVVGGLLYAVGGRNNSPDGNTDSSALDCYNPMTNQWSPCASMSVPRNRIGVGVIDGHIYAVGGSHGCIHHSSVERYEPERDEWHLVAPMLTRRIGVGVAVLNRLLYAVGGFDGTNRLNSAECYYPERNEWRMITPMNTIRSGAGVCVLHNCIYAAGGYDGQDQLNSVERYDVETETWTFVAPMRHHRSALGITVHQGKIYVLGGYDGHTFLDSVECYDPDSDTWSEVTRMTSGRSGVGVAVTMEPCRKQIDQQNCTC

CC(=O)NCC(=O)N[C@@H](CCC(N)=O)C(=O)N[C@@H](CC(C)C)C(=O)N[C@@H](CC(=O)O)C(=O)N1CCC[C@H]1C(=O)N[C@@H](CCC(=O)O)C(=O)N[C@H](C(=O)NCC(=O)N[C@@H](CCC(=O)O)C(=O)N[C@@H](Cc1ccccc1)C(=O)N[C@@H](CC(C)C)C(=O)O)[C@@H](C)O
inhibition [1]: inactive
inhibition [2]: inactive
inhibition [3]: inactive
inhibition [4]: inactive
inhibition [5]: inactive
inhibition [6]: inactive

CC(C)C[C@@H]1NC(=O)[C@H](Cc2ccccc2)NC(=O)[C@H](CCC(=O)O)NC(=O)CNC(=O)[C@H]([C@@H](C)O)NC(=O)[C@H](CCC(=O)O)NC(=O)[C@@H]2CCCN2C(=O)[C@H](CC(=O)O)NC(=O)[C@H](CC(C)C)NC(=O)[C@H](CCC(N)=O)NC(=O)CNC1=O
Activity (RAW264.7 [7]): Active
inhibition [2]: Active
inhibition (RAW264.7 [8]): Active
inhibition [3]: Active
inhibition (RAW264.7 [9]): Active
inhibition [10]: Active
Activity (RAW264.7 [11]): Active
Activity (RAW264.7 [12]): Active
Activity (RAW264.7 [13]): Active
inhibition [14]: Active
inhibition (RAW264.7 [15]): Active
inhibition (RAW264.7 [16]): Active
inhibition (RAW264.7 [17]): Active
Activity (RAW264.7 [18]): 14 µM
inhibition [19]: Active
inhibition [5]: Active
